“And” between values parts separate entries of the source, which are not always exact repeats. Equal entries are not always repeated. Where no end group is shown, it is not given here. [ ]: non-standard residue; d: D form. Pen = CC(C)(S)[C@H](N)C(=O)O

For experiment [1], the system named is platelets stimulated with ADP. Put plainly: ADP-stimulated platelet aggregation (Born aggregometry, PRP). It is filed as cell-based, human. As to conditions: ADP 10 μm, platelet-rich plasma, 37° C.
Procedure: Platelet aggregation was assessed using the method of Born, Nature 194: 927-929 (1962), incorporated herein by reference. Briefly, the change in light transmission was measured through a stirred suspension of platelets in an aggregometer (Model 400 VS, Chrono-Log, Havertown, Pa., USA). Studies employing ADP were performed with platelet-rich plasma (PRP), which was obtained by low-speed centrifugation (200× g for 10 min.) of whole blood freshly drawn into trisodium citrate (at a final concentration of 11 mM). […] For all studies, the reference standard was platelet-poor plasma, which was obtained by centrifuging PRP at 1000× g for 5 min.
Experiment [2] relates to platelets stimulated with thrombin. Put plainly: Thrombin-stimulated platelet aggregation (Born aggregometry). In kind it is cell-based, human. Conditions: thrombin 2 U/ml, gel-filtered platelets, 37° C. The method, then: Platelet aggregation was assessed using the method of Born, Nature 194: 927-929 (1962), incorporated herein by reference. Briefly, the change in light transmission was measured through a stirred suspension of platelets in an aggregometer (Model 400 VS, Chrono-Log, Havertown, Pa., USA). […] In studies using thrombin, the PRP was gel-filtered on Sepharose 2B in divalent ion-free Tyrode's solution containing 2% BSA. For all studies, the reference standard was platelet-poor plasma, which was obtained by centrifuging PRP at 1000× g for 5 min.
All aggregation studies were performed at 37° C. with a constantly stirred suspension of 3×10^8 platelets/ml. (Platelet count was determined with the aid of a hemacytometer.) Peptides and stimulants were added to these suspensions in 1% dilutions. The PRP and gel-filtered platelets were used within three hours from the time of blood collection.
Peptide anti-aggregation potencies were determined from dose-responsive curves for the inhibition of the maximum aggregation responses stimulated by physiologic doses of ADP (10 μm) and thrombin (2 U/ml).

The subject of another experiment is platelet aggregation. The experiment can be described thus: Ex vivo platelet aggregation after peptide injection in canine coronary thrombosis model. Conditions: for ex vivo aggregation reduced relative to control: 3 mg/kg. Further details: species or system dog. The method, then:
For all ex vivo studies (see FIGS. 3a, 3b1, 3b2, 3b3, 3c1 and 3c2), control aggregation values were standardized to the percentages of light transmission observed in PRP and PPP samples (0% and 100%, respectively).
(§1) Animals were randomly assigned to two treatment groups: vehicle control (i.e., normal saline) or RGD peptides at various concentrations. Peptides were administered intra-atrially in both bolus and continuous injections. […] A continuous infusion of the same peptide was then started immediately after completion of this initial injection. Animals that received a 5 mg/kg bolus also received a 5 mg/kg/hr infusion, whereas animals that received a 10 mg/kg bolus also received a 10 mg/kg/hr infusion. The anti-thrombotic effects of the peptides were monitored until 30 minutes after the occurrence of a persistent, occlusive thrombus or five hours after the initiation of electrical stimulation (whichever resulted first). If an occlusive thrombus had not developed within four hours after the initiation of current, the peptide infusion was stopped.
(§2) Platelet counts and ex vivo aggregation studies were performed one hour before and 1, 3, and 5 hours after application of anodal direct current.
Platelet aggregation was also determined ex vivo at one, three, and five hours after current application. For these studies, arachidonic acid, or collagen was again used to stimulate the platelets.
The average aggregation values determined in these studies for all of the peptide treatments are depicted in FIGS. 3a, 3b1, 3b2, 3b3, 3c1, and 3c2. […] The control responses in these studies were 70-80% of maximum. […] Here the control responses were 55-80% of maximum.

The subject of a further experiment is coronary thrombosis. Put plainly: Electrically induced canine coronary thrombosis, time to full occlusion. In kind it is in vivo, dog. The method, then:
Male mongrel dogs weighing 14 to 20 kg were selected based on proper aggregation of their platelets in response to arachidonic acid, collagen, and adenosine disphosphate (ADP) and based on similar weights and hemodynamic properties.
Before surgery, the animals were anesthetized with sodium pentobarbital (30 mg/kg, i.v.) and then intubated and ventilated on room air with positive pressure using a respirator (Harvard Apparatus, S. Natick, Mass.) at a volume of 30 ml/kg and a frequency of 12 breaths/min. Surgery, performed under aseptic conditions, was begun with the placement of cannulae into the left carotid artery and jugular vein for monitoring arterial blood pressure (Statham P23 pressure transducer, Gould, Inc., Cardiovascular Products, Oxnard, Calif.) and administering intravenous fluids.
The heart was exposed via a left thoracotomy through the 5th intercostal space. A 2-cm segment of the left circumflex coronary artery (LCCA) was isolated from surrounding tissue by blunt dissection. […] The intra-coronary electrode was constructed by attaching a 25-gauge hypodermic needle tip to a 30-gauge Teflon-insulated silver-coated copper wire. The mechanical occluder was constructed of stainless steel in a C shape with a Teflon screw (2 mm diameter) on top. It was adjusted to control vessel circumference and decrease the reactive hyperemic flow due to a 10-sec (full) occlusion by 50-70% without affecting basal coronary blood flow (FIG. 1c). A monopolar epicardial electrode was sutured to the surface of the ventricle in the region of LCCA distribution to monitor ischemic changes in the electrocardiogram (ECG). The left atrium was cannulated with polythylene tubing for administration of the peptide. Continuous recordings of blood pressure, limb lead II ECG, epicardial electrogram, and mean and phasic LCCA blood flow were obtained on a Model 7 polygraph (Grass Instrument Co., Quincy, Mass.).
One hour after the completion of surgery, a 100 micro-amp continuous anodal direct current delivered from a 9 volt nickel-cadmium battery was applied to the intimal surface of the LCCA. The anode of the battery was in series with a 250,000 ohm potentiometer and the intraluminal coronary artery electrode. The electric circuit was completed by placing the cathode in a subcutaneous site. Electrical stimulation was applied for three hours. At the conclusion of each experiment, the heart was fibrillated electrically and quickly removed, and the LCCA was dissected free as far as possible to verify the position of the implanted anodal electrode.
as §1
Coronary thrombosis was quantified as the time to full occlusion. The effects of the various peptide treatments on coronary thrombosis is illustrated in FIG. 4.

The subject of experiment [3] is canine platelet aggregation. The experiment can be described thus: In vitro canine platelet aggregation stimulated by ADP, arachidonic acid or collagen. In kind it is cell-based, dog. As to conditions: 10 μm ADP, […] arachidonic acid or 9.6 micrograms/ml collagen; PRP; read-out: IC50 against canine platelet aggregation. As to the method:
as §2
Epinephrine (550 nM) was used to prime platelets before stimulation with arachidonic acid. Peptides were added in 1% dilutions to the PRP solutions.

Setting [4] is: 10 mg/kg bolus + 10 mg/kg/hr infusion, intra-atrial.

(t-but-am-Pmp)GHRGDLRPenA: 89 µM corresponded to half-maximal inhibition in experiment [1] (IC50).

For the substance (t-butylAmino-Pmp) GHRGDLRCA, the IC50 (as a rule, the concentration that gives 50% inhibition) in experiment [1] is 130 µM.

As to FRGDSPDG, in experiment [1], inhibition was half-maximal at 110 µM (IC50).

Take GPenFRGDSFCA: the IC50 in experiment [1] was more than 200 µM.

On to GPenGHRGDTRCA, for which the values for the IC50 in experiment [2] and in experiment [1] were 17 µM and 11.3 µM, respectively.

GPenGRGDRPCA returned an IC50 in experiment [1] of 22.3 µM.

As to GPenGRGDTPCA, the figures for the IC50 in experiment [2] and in experiment [1] were 28 µM and 22.3 µM, respectively.

Turning to GPenLRGDSPCA, the figures for the IC50 in experiment [2] and in experiment [1] were 308 µM and 415 µM, respectively.

As for GPenLRGDSRCA, the results for the IC50 in experiment [2] and in experiment [1] were 49 µM and 41 µM, respectively.

Take GPenLRGDTPCA: in experiment [1], inhibition was half-maximal at 86 µM (IC50).

For the substance “G[Pen]GRGDSFCA (cysteine pairing not given here)”, in experiment [1], half-maximal inhibition (IC50) was put at 115 µM.

In experiment [1], “G[Pen]YRGDSPCA (cysteine pairing not given here)” had an IC50 of 47 µM.

In the case of LPenGHRGDLRCA, in experiment [1], the half-maximal inhibitory concentration (IC50) was determined as 10.5 µM.

In turn, LRGDSPDG came in with an IC50 in experiment [1] of 150 µM.

In experiment [1], PmpGRGDTPCA came in with an IC50 of 85 µM.

On to R2 PenGRGDTPCA, for which the IC50 came out at 2.7 µM in experiment [2] and 8.2 µM in experiment [1].

For R(orn)GHRGDLRDR, in experiment [1], the IC50 was more than 200 µM.

Take RPenGHRGDWRCR: the IC50 in experiment [2] is 1.2 µM; in experiment [1], 1.3 µM; in experiment [3], 1.5 to 5 µM. Further, in the experiment with platelet aggregation (5 mg/kg), the “ex vivo inhibition of platelet activation by collagen” value is listed as “near-maximal inhibition”. Further, in the experiment with platelet aggregation (5 mg/kg, all three time points), the “ex vivo platelet response to ADP and AA” value was “completely unresponsive”. The “ex vivo anti-aggregation effect when platelet count was low” value in the experiment with platelet aggregation (5 mg/kg, platelet count ca. one-third of normal (104,000/ml vs. 361,000/ml)) is “more pronounced”. Besides, the “ex vivo platelet responsiveness” value in the experiment with platelet aggregation (10 mg/kg, five-hour point) was “slightly improved”. For the same substance, in the experiment on platelet aggregation (10 mg/kg, one- and three-hour time points), the “ex vivo platelet aggregation by all three stimuli” value was “prevented platelet aggregation”. Also, in the experiment on coronary thrombosis (5 mg/kg), the “thrombus formation in animals with circulating platelet levels one-third of normal” value was “able to prevent thrombus formation”. The figures for the “time to full occlusion” value with coronary thrombosis (5 mg/kg bolus + 5 mg/kg/hr infusion) and with coronary thrombosis (setting [4]) were “significantly prolonged the time to occlusion” and “completely prevented occlusion”, respectively.

For RPenGRGDTPCA, the IC50 in experiment [2] came to 3.1 µM; in experiment [1], 7 µM.

With RPenGRGDTPCK, half-maximal inhibition in experiment [1] (IC50) was put at 7.6 µM.

As to RPenGRGDTPCR, the IC50 amounted to 2 µM in experiment [2] and 6.3 µM in experiment [1].

Take RPenGRGDWPCR: the results for the IC50 in experiment [2] and in experiment [3] were 0.53 µM and 1.5 to 5 µM, respectively. The “ex vivo aggregation reduced relative to control” value in the experiment with platelet aggregation (one hour) is 20-58%; with platelet aggregation (three and five hours, listed as 4R), 75-100% and 72-100%. The “ex vivo platelet response to all modes of stimulation” value with platelet aggregation (10 mg/kg, all time points) is reported as “unresponsive”. For the same substance, the results for the “time to full occlusion” value in the experiment on coronary thrombosis (3 mg/kg) and in the experiment on coronary thrombosis (setting [4]) were “ineffective” and “prevented occlusion”, respectively.

For “R[Pen]GHRGDTRCR (cysteine pairing not given here)”, the IC50 in experiment [1] stood at 8.8 µM.

Consider “R[Pen]GRGDLRCA (cysteine pairing not given here)”, for which the IC50 in experiment [2] worked out at 13 µM; in experiment [1], 16 µM.

As to “R[Pen]GRGDSRCA (cysteine pairing not given here)”, the IC50 in experiment [2] and in experiment [1] was 12 µM throughout.

On to VRGDSPDG, for which, in experiment [1], the IC50 was determined as 92 µM.

The values above are taken from patent US5648330A, “Method and composition for treating vascular graft occlusion” (La Jolla Cancer Research Foundation, priority 1995, dated 1997).
